Experimental data: patent US9179694B2, “Method and composition for enhancing milk production and milk component concentrations” (PURINA ANIMAL NUTRITION LLC, priority 2003, dated 2015)

Assay: Milk production (as is basis) in sorbitol feeding trials
Assay type: in vivo, Holstein cows
Description: Each cow of each of the six different trials (Control Trial #1, Control Trial #2, Pre-Partum Trial #1, Pre-Partum Trial #2, Pre/Post Trial #1, and Pre/Post Trial #2) was milked three times daily and the weight of produced milk by each cow was recorded at each milking. The milk from each cow was sampled once per week (⅓ of the sample volume from each of the three milkings occurring on the weekly milk sampling day) and was analyzed for true protein, total fat, lactose, and total solids, as detailed in the property determination and characterization techniques presented above. Additionally, samples of blood were periodically obtained from each cow during the four trials (Control Trial 2, Pre-Partum Trial #2, Pre/Post Trial #1, and Pre/Post Trial #2) encompassed in Example Two and were analyzed for non-esterified fatty acid (NEFA) content as detailed in the property determination and characterization techniques presented above. No NEFA analysis was conducted on the cows employed in Control Trial #1 or Pre-Partum Trial #1 that are the subject of Example One. Example One includes Control Trial #1 and Pre-Partum Trial #1. Both primiparious cows and multiparious cows were included in Control Trial #1 and Pre-Partum Trial #1. Five primiparious cows and fifteen multiparious cows were included in Control Trial #1; likewise, five primiparious cows and fifteen multiparious cows were included in Pre-Partum Trial #1. All cows included in Control Trial #1 and Pre-Partum Trial #1 were Holsteins. Example Two includes Control Trial #2, Pre-Partum Trial #2, Pre/Post Trial #1, and Pre/Post Trial #2. Only multiparious, Holstein cows were included in Control Trial #2, Pre-Partum Trial #1, Pre/Post Trial #1, and Pre/Post Trial #2. Eighteen multiparious cows were included in both Control Trial #2 and Pre-Partum Trial #2, while sixteen multiparious cows were included in Pre/Post Trial #1 and seventeen multiparious cows were included in Pre/Post Trial #2.

OC[C@@H](O)[C@@H](O)[C@H](O)[C@@H](O)CO [sorbitol]
Milk Production (As Is Basis) (Pre-Partum Trial #1 (75/0/0 g/day in wk −3..−1/+1..+4/+5..+8), multiparious cows, weeks +1 through +8): 99.9 lbs/day
Milk Production (As Is Basis) (Pre-Partum Trial #1 (75/0/0 g/day in wk −3..−1/+1..+4/+5..+8), primiparious cows, weeks +1 through +8): 71.7 lbs/day
increase in milk production (Pre-Partum Trial #1 (75 g/day wk −3..−1 only) versus Control Trial #1, multiparious cows, weeks +1 through +8): 9.2%
Milk Production (As Is Basis) (Pre-Partum Trial #2 (75/0/100 g/day in wk −3..−1/+1..+4/+5..+8), multiparious cows, week +1): 62.8 lbs/day
Milk Production (As Is Basis) (Pre-Partum Trial #2 (75/0/100 g/day in wk −3..−1/+1..+4/+5..+8), multiparious cows, week +2): 92.6 lbs/day
Milk Production (As Is Basis) (Pre-Partum Trial #2 (75/0/100 g/day in wk −3..−1/+1..+4/+5..+8), multiparious cows, week +3): 102 lbs/day
Milk Production (As Is Basis) (Pre-Partum Trial #2 (75/0/100 g/day in wk −3..−1/+1..+4/+5..+8), multiparious cows, week +4): 111 lbs/day
Milk Production (As Is Basis) (Pre-Partum Trial #2 (75/0/100 g/day in wk −3..−1/+1..+4/+5..+8), multiparious cows, week +5): 115 lbs/day
Milk Production (As Is Basis) (Pre-Partum Trial #2 (75/0/100 g/day in wk −3..−1/+1..+4/+5..+8), multiparious cows, week +6): 115 lbs/day
Milk Production (As Is Basis) (Pre-Partum Trial #2 (75/0/100 g/day in wk −3..−1/+1..+4/+5..+8), multiparious cows, week +7): 115 lbs/day
Milk Production (As Is Basis) (Pre-Partum Trial #2 (75/0/100 g/day in wk −3..−1/+1..+4/+5..+8), multiparious cows, week +8): 111 lbs/day
Milk Production (As Is Basis) (Pre-Partum Trial #2 (75/0/100 g/day in wk −3..−1/+1..+4/+5..+8), multiparious cows, weeks +1 through +4): 92.0 lbs/day
Milk Production (As Is Basis) (Pre-Partum Trial #2 (75/0/100 g/day in wk −3..−1/+1..+4/+5..+8), multiparious cows, weeks +1 through +8): 103 lbs/day
Milk Production (As Is Basis) (Pre-Partum Trial #2 (75/0/100 g/day in wk −3..−1/+1..+4/+5..+8), multiparious cows, weeks +5 through +8): 115 lbs/day
Milk Production (As Is Basis) (Pre/Post Trial #1 (150/125/100 g/day in wk −3..−1/+1..+4/+5..+8), multiparious cows, week +1): 67.9 lbs/day
Milk Production (As Is Basis) (Pre/Post Trial #1 (150/125/100 g/day in wk −3..−1/+1..+4/+5..+8), multiparious cows, week +1, two-trial comparison with Control Trial #2 (Table 23)): 68.4 lbs/day
Milk Production (As Is Basis) (Pre/Post Trial #1 (150/125/100 g/day in wk −3..−1/+1..+4/+5..+8), multiparious cows, week +2): 93.8 lbs/day
Milk Production (As Is Basis) (Pre/Post Trial #1 (150/125/100 g/day in wk −3..−1/+1..+4/+5..+8), multiparious cows, week +2, two-trial comparison with Control Trial #2 (Table 23)): 93.9 lbs/day
Milk Production (As Is Basis) (Pre/Post Trial #1 (150/125/100 g/day in wk −3..−1/+1..+4/+5..+8), multiparious cows, week +3): 104 lbs/day
Milk Production (As Is Basis) (Pre/Post Trial #1 (150/125/100 g/day in wk −3..−1/+1..+4/+5..+8), multiparious cows, week +3, two-trial comparison with Control Trial #2 (Table 23)): 104 lbs/day
Milk Production (As Is Basis) (Pre/Post Trial #1 (150/125/100 g/day in wk −3..−1/+1..+4/+5..+8), multiparious cows, week +4): 109 lbs/day
Milk Production (As Is Basis) (Pre/Post Trial #1 (150/125/100 g/day in wk −3..−1/+1..+4/+5..+8), multiparious cows, week +4, two-trial comparison with Control Trial #2 (Table 23)): 109 lbs/day
Milk Production (As Is Basis) (Pre/Post Trial #1 (150/125/100 g/day in wk −3..−1/+1..+4/+5..+8), multiparious cows, week +5): 113 lbs/day
Milk Production (As Is Basis) (Pre/Post Trial #1 (150/125/100 g/day in wk −3..−1/+1..+4/+5..+8), multiparious cows, week +5, two-trial comparison with Control Trial #2 (Table 23)): 113 lbs/day
Milk Production (As Is Basis) (Pre/Post Trial #1 (150/125/100 g/day in wk −3..−1/+1..+4/+5..+8), multiparious cows, week +6): 113 lbs/day
Milk Production (As Is Basis) (Pre/Post Trial #1 (150/125/100 g/day in wk −3..−1/+1..+4/+5..+8), multiparious cows, week +6, two-trial comparison with Control Trial #2 (Table 23)): 113 lbs/day
Milk Production (As Is Basis) (Pre/Post Trial #1 (150/125/100 g/day in wk −3..−1/+1..+4/+5..+8), multiparious cows, week +7): 112 lbs/day
Milk Production (As Is Basis) (Pre/Post Trial #1 (150/125/100 g/day in wk −3..−1/+1..+4/+5..+8), multiparious cows, week +7, two-trial comparison with Control Trial #2 (Table 23)): 112 lbs/day
Milk Production (As Is Basis) (Pre/Post Trial #1 (150/125/100 g/day in wk −3..−1/+1..+4/+5..+8), multiparious cows, week +8): 114 lbs/day
Milk Production (As Is Basis) (Pre/Post Trial #1 (150/125/100 g/day in wk −3..−1/+1..+4/+5..+8), multiparious cows, week +8, two-trial comparison with Control Trial #2 (Table 23)): 115 lbs/day
Milk Production (As Is Basis) (Pre/Post Trial #1 (150/125/100 g/day in wk −3..−1/+1..+4/+5..+8), multiparious cows, weeks +1 through +4): 93.6 lbs/day
Milk Production (As Is Basis) (Pre/Post Trial #1 (150/125/100 g/day in wk −3..−1/+1..+4/+5..+8), multiparious cows, weeks +1 through +4, two-trial comparison with Control Trial #2 (Table 23)): 94.1 lbs/day
Milk Production (As Is Basis) (Pre/Post Trial #1 (150/125/100 g/day in wk −3..−1/+1..+4/+5..+8), multiparious cows, weeks +1 through +8): 103 lbs/day
Milk Production (As Is Basis) (Pre/Post Trial #1 (150/125/100 g/day in wk −3..−1/+1..+4/+5..+8), multiparious cows, weeks +1 through +8, two-trial comparison with Control Trial #2 (Table 23)): 104 lbs/day
Milk Production (As Is Basis) (Pre/Post Trial #1 (150/125/100 g/day in wk −3..−1/+1..+4/+5..+8), multiparious cows, weeks +5 through +8): 113 lbs/day
Milk Production (As Is Basis) (Pre/Post Trial #1 (150/125/100 g/day in wk −3..−1/+1..+4/+5..+8), multiparious cows, weeks +5 through +8, two-trial comparison with Control Trial #2 (Table 23)): 113 lbs/day
Milk Production (As Is Basis) (Pre/Post Trial #2 (75/75/100 g/day in wk −3..−1/+1..+4/+5..+8), multiparious cows, week +1): 66.4 lbs/day
Milk Production (As Is Basis) (Pre/Post Trial #2 (75/75/100 g/day in wk −3..−1/+1..+4/+5..+8), multiparious cows, week +2): 92.8 lbs/day
Milk Production (As Is Basis) (Pre/Post Trial #2 (75/75/100 g/day in wk −3..−1/+1..+4/+5..+8), multiparious cows, week +3): 102 lbs/day
Milk Production (As Is Basis) (Pre/Post Trial #2 (75/75/100 g/day in wk −3..−1/+1..+4/+5..+8), multiparious cows, week +4): 108 lbs/day
Milk Production (As Is Basis) (Pre/Post Trial #2 (75/75/100 g/day in wk −3..−1/+1..+4/+5..+8), multiparious cows, week +5): 113 lbs/day
Milk Production (As Is Basis) (Pre/Post Trial #2 (75/75/100 g/day in wk −3..−1/+1..+4/+5..+8), multiparious cows, week +6): 113 lbs/day
Milk Production (As Is Basis) (Pre/Post Trial #2 (75/75/100 g/day in wk −3..−1/+1..+4/+5..+8), multiparious cows, week +7): 110 lbs/day
Milk Production (As Is Basis) (Pre/Post Trial #2 (75/75/100 g/day in wk −3..−1/+1..+4/+5..+8), multiparious cows, week +8): 108 lbs/day
Milk Production (As Is Basis) (Pre/Post Trial #2 (75/75/100 g/day in wk −3..−1/+1..+4/+5..+8), multiparious cows, weeks +1 through +4): 91.7 lbs/day
Milk Production (As Is Basis) (Pre/Post Trial #2 (75/75/100 g/day in wk −3..−1/+1..+4/+5..+8), multiparious cows, weeks +1 through +8): 102 lbs/day
Milk Production (As Is Basis) (Pre/Post Trial #2 (75/75/100 g/day in wk −3..−1/+1..+4/+5..+8), multiparious cows, weeks +5 through +8): 111 lbs/day
